SMILES strings stand for the structures.

This data set in a line: in vitro. As to conditions: human, hela cells, % viability.
In the case of `O=C(O)COc1cccc(NC(=O)c2cc3ccccc3o2)c1` [CBK270071], the viability (in general, a read-out of living cells in per cent, often relative to untreated cells) at 28.5 h, 10 µM came out at 90.3%.
With `CCOc1ccc(S(=O)(=O)N2CCC(C(=O)N3CCN(C)CC3)CC2)cc1` [CBK270075], the viability at 28.5 h, 10 µM was 88.8%.
`Cc1ccc(C(=O)Nc2ccccc2)cc1S(=O)(=O)N1CCN(C)CC1` [CBK270076]: the viability at 28.5 h, 10 µM was determined as 90.2%.
Take `O=C(Cn1c(=O)oc2ccccc21)Nc1ccc(N2CCOCC2)c(Cl)c1` [CBK270079]: the viability at 28.5 h, 10 µM came out at 102%.
Regarding `Cn1nnnc1SCCNCc1ccc2c(c1)n(C)c(=O)n2C` [CBK270080C], the viability at 28.5 h, 10 µM was determined as 99.8%.
As to `COc1cc(-c2nc(C(C)=O)c(C)n2O)cc(OC)c1OC` [CBK270083], the viability at 28.5 h, 10 µM is 95.6%.
For `Cc1cccc(C)c1N1CCN(CC(O)COc2ccc3c(C)cc(=O)oc3c2)CC1` (stereo not drawn) [CBK270084] the value was 91.2%.
Consider `Cn1c(=O)[nH]c(=O)c2c1nc(CN1CCOCC1)n2Cc1c(F)cccc1Cl` [CBK270085], for which the viability at 28.5 h, 10 µM is 90.5%.
Under `COc1ccccc1N1CCN(CC(=O)Nc2cc(Cl)ccc2C)CC1` [CBK270087] stands 105%; under `N#Cc1ccccc1NC(=O)CN1CCCCCC1` [CBK270088], 87.8%; under `O=C(CSc1nnnn1-c1cccnc1)NC1CCCCCC1` [CBK270092], 83.9%.
For `COc1cc(Br)c(-c2nnn[nH]2)cc1OC` [CBK270093] the value was 108%; for `Cn1c(=O)n(C)c2cc(NC(=O)CN(c3ccccc3)S(C)(=O)=O)ccc21` [CBK270094], 103%.
Under `Cc1nonc1NC(=O)CSc1nc2cc(Cl)ccc2[nH]1` [CBK270095] stands 84.8%.
As to `Cc1cccc(C)c1OCC(=O)Nc1ccccc1C(=O)N1CCOCC1` [CBK270096], the viability at 28.5 h, 10 µM was determined as 91.2%.
Turning to `CCc1cc(S(=O)(=O)NC2CC(C)(C)NC(C)(C)C2)ccc1OC` [CBK270097], the viability at 28.5 h, 10 µM worked out at 92%.
Under `CCc1ccc(OC)c(S(=O)(=O)NC2CC(C)(C)NC(C)(C)C2)c1` [CBK270098] stands 101%.
Turning to `Nc1ccc(OCc2nc3ccccc3n2CC(=O)O)cc1` [CBK270099], the viability at 28.5 h, 10 µM came out at 96%.
As to `O=C(O)CCCn1cc(NC(=O)c2ccccc2Br)cn1` [CBK270100], the viability at 28.5 h, 10 µM was 82.9%.
With `CCn1c(SCC(=O)Nc2ccc(C#N)cc2)nnc1-c1ccncc1` [CBK270102], the viability at 28.5 h, 10 µM stood at 96.4%.
On to `Cc1ccc(Cl)cc1NC(=O)CCn1cnc2ccccc2c1=O` [CBK270103], for which the viability at 28.5 h, 10 µM was found to be 95.1%.
Regarding `Cn1ncc(N)c1C(=O)Nc1cccc(Cl)c1` [CBK270107], the viability at 28.5 h, 10 µM worked out at 87.6%.
For `CCOc1cc(S(=O)(=O)NCCCN2CCOCC2)ccc1Br` [CBK270111] the value was 87.4%; for `OCc1nc2ccccc2n1CCCCOc1ccccc1Cl` [CBK270117], 106%; for `O=C(O)CCCn1cc(NC(=O)c2cccs2)cn1` [CBK270122], 88.1%.
Under `CC(=O)NCc1nnc2c3ccccc3c(-c3ccccc3)nn12` [CBK270123] stands 92.3%; under `Cc1cccc(Cn2nc(C)c(NC(=O)c3ccncc3)c2C)c1` [CBK270126], 97.2%; under `O=C(CCn1cnnn1)Nc1cc(C(F)(F)F)ccc1Cl` [CBK270127], 91.4%.
As to `CCOC(=O)C1CCN(CCOc2ccc3ccccc3c2)CC1` [CBK270128C], the viability at 28.5 h, 10 µM turned out to be 95.4%.
As to `Cc1cc(CNC(=O)COc2ccc(C#N)cc2)c2ccccc2n1` [CBK270129], the viability at 28.5 h, 10 µM is 87.6%.
Under `COc1ccc(-c2ccc(=O)n(CCN)n2)cc1` [CBK270130C] stands 97.2%; under `CN(C)S(=O)(=O)c1cccc(C(=O)NCc2ccco2)c1` [CBK270135], 94.7%; under `Cc1ccc(NC(=O)CSc2cnn[nH]2)cc1` [CBK270136], 86.2%.
Take `O=C(NCCCO)C1CCCN(S(=O)(=O)c2ccc3ccccc3c2)C1` (stereo not drawn) [CBK270141]: the viability at 28.5 h, 10 µM was 88.3%.
Under `CCC(Oc1ccccc1C)C(=O)Nc1ccccc1C(=O)N(C)C` (stereo not drawn) [CBK270144] stands 88.4%; under `CCOc1ccc(N2C(=O)CC(N3CCN(CCc4ccccn4)CC3)C2=O)cc1` (stereo not drawn) [CBK270149], 95.8%; under `CNC(=O)c1ccc(OC)c(S(=O)(=O)NC)c1` [CBK270153], 88.9%.
For `O=C1CC(c2ccc(S(=O)(=O)NCc3ccccc3)cc2)CN1` (stereo not drawn) [CBK270155] the value was 87.5%; for `Fc1ccc(-c2ccc(CNCc3ccncc3)o2)cc1` [CBK270158C], 92.7%; for `CC1(C)Cc2cccc(OCC(=O)O)c2O1` [CBK270161], 100%.
`Cc1ccc(-c2cc(O)n(-c3nc(C)cc(C)n3)n2)cc1` [CBK270165]: the viability at 28.5 h, 10 µM was 97.1%.
With `FC(F)(F)c1ccc(Oc2ccc(-c3noc(-c4cccnc4)n3)cc2)nc1` [CBK270166], the viability at 28.5 h, 10 µM is 90.3%.
For `O=C(Nc1ccc2c(c1)oc1ccccc12)C1CCCO1` (stereo not drawn) [CBK270168] the value was 81.9%; for `CCN1CCN(c2ccc(C(=O)OC)cc2NC(=O)c2ccc(C#N)cc2F)CC1` [CBK270171], 101%.
As for `Cc1cc(-c2cccs2)c(C#N)c(SCc2cccnc2)n1` [CBK270172], the viability at 28.5 h, 10 µM was found to be 81%.
Under `COC(=O)COc1ccc2cccc(-n3cnnn3)c2c1` [CBK270173] stands 84.7%; under `O=C(NCc1ccccn1)C1CC(=O)N(c2ccccc2)C1` (stereo not drawn) [CBK270175], 88.7%.
Under `O=C1CC(C(=O)Nc2ccc3c(c2)OCO3)n2c(nc3ccccc32)N1` (stereo not drawn) [CBK270177] stands 93.6%; under `CNS(=O)(=O)c1cc(C(=O)NCc2ccco2)ccc1OC` [CBK270180], 103%; under `O=C(CN1CCN(c2ncccn2)CC1)N1N=CCC1c1ccccc1` (stereo not drawn) [CBK270184], 89.4%.
Consider `CCOC(=O)c1cnc2nc3ccccc3n2c1C` [CBK270185], for which the viability at 28.5 h, 10 µM was 95.4%.
Under `O=C(COc1nc2ccccc2s1)N1N=CCC1c1ccccc1` (stereo not drawn) [CBK270188] stands 92.7%.
With `CNc1sc(C(=O)c2ccc(OC)c(OC)c2)c(N)c1C#N` [CBK270194], the viability at 28.5 h, 10 µM is 86.1%.
Take `Cc1cc(C)c(S(=O)(=O)NC(C)C)c(C)c1-n1cnnn1` [CBK270197]: the viability at 28.5 h, 10 µM was 96.5%.
Under `Cc1nn2c(C)c(C(=O)Nc3ccccc3)nnc2c1-c1ccccc1` [CBK270198] stands 85.6%; under `COc1ccc(C(=O)N2CCN(c3ccc(NC(=O)c4cccnc4)cc3)CC2)cc1` [CBK270200], 85.5%.
For `COc1ccc(-c2cc(C(F)(F)F)c3c(n2)sc2c(=O)cc(O)[nH]c23)cc1OC` [CBK270201], the viability at 28.5 h, 10 µM amounted to 84.6%.
Turning to `O=C(CC1SCCNC1=O)NCc1ccccc1` (stereo not drawn) [CBK270202], the viability at 28.5 h, 10 µM was 99.1%.
Under `COCC(C)NS(=O)(=O)c1cc(Cl)ccc1OC` (stereo not drawn) [CBK270203] stands 90.7%; under `COc1ccc(C)cc1NC(=O)CSc1nc(C)cc(C(F)(F)F)n1` [CBK270205], 96%.

(Values after PMC12040169 (PLOS Biology, 2025).)
